SMILES strings stand for the structures.

The target of the experiment is recombinant human MGAT2 (Homo sapiens (Human), UniProt Q3SYC2). The experiment in a line: Measurement of human MGAT2 inhibitory activity. Type of experiment: biochemical. Conditions: recombinant human MGAT2 membrane fraction (Sf-9); 2-Oleoylglycerol and Oleoyl-CoA substrates; 1 hour at room temperature; Diolein detected by RapidFire Q-TOF MS. An excerpt: A full-length human MGAT2 gene to which a Flag-tag had been added at the N-terminal was inserted into pFastBac (from Invitrogen). A recombinant baculovirus was produced in accordance with the protocol for a Bac-to-Bac baculovirus expression system (produced by Invitrogen), and Sf-9 cells were infected therewith. The cells were collected and sonicated, and then the membrane fraction was collected through centrifugation.
Chain of recombinant human MGAT2 (Q3SYC2 whole entry): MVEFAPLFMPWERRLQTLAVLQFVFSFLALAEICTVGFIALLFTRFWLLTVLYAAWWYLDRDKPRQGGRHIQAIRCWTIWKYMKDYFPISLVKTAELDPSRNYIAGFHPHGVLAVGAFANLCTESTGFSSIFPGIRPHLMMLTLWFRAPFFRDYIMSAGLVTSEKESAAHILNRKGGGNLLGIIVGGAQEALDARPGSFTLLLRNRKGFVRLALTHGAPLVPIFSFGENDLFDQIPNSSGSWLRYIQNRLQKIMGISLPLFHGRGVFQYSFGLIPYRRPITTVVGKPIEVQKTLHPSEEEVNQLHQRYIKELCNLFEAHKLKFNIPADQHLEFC
Solutions of the compounds of the present invention in DMSO were each aliquoted into 0.2-μL portions in a 384-well polystyrene microplate produced by Corning Incorporated, and 5 μL of an enzyme solution prepared with an assay buffer (100 mmol/L phosphate buffer (pH 7.4) containing 2 mmol/L DTT) and 5 μL of a substrate solution (100 mmol/L phosphate buffer (pH 7.4), 30 μmol/L 2-Oleoylglycerol, 10 μmol/L Oleoyl-CoA) were added thereto, and the resultant was stirred and centrifuged, and incubated in a moist chamber at room temperature for 1 hour. […] Diolein as a reaction product (P) of 2-Oleoylglycerol as the substrate and an ammonium adduct ion of the IS were detected, and the peak intensity ratio, P/IS, was calculated from the peak heights to evaluate the inhibitory activity. […] The inhibitory activity was calculated from the formula below with TIBCO Spotfire (produced by TIBCO Software Inc.): Inhibitory activity (%)=[1−{Sample−Control(−)}/{Control(+)−Control(−))}]*100 where Sample indicates a peak intensity ratio: P/IS, when the compound of the present invention was added.
Consider `CC(C)c1ccc(C2=C(CNC(=O)C(C)(C)C#N)C(=O)N[C@@](c3ccc(OCCCC(F)(F)F)cc3)(C(F)(F)F)C2)nc1` [Compound I-45], for which the IC50 (usually the concentration that inhibits the measured activity by half) amounted to 0.0044 µM.
In the case of `COc1ccc(C2=C(CNC(=O)C3CS(=O)(=O)C3)C(=O)N[C@@](c3ccc(OCCCC(F)(F)F)cc3)(C(F)(F)F)C2)nc1` [Compound I-46] it was 0.062 µM; in that of `CC(C)(O)c1ccc(C2=C(CNC(=O)CS(C)(=O)=O)C(=O)N[C@@](c3ccc(OCCCC(F)(F)F)cc3)(C(F)(F)F)C2)nc1` [Compound I-47], 0.00073 µM; in that of `CC(C)(O)c1ccc(C2=C(CNC(=O)C3CS(=O)(=O)C3)C(=O)N[C@@](c3ccc(OCCCC(F)(F)F)cc3)(C(F)(F)F)C2)nc1` [Compound I-48], 0.0032 µM.
In the case of `CC(=O)NCC1=C(c2ccc(Br)cn2)C[C@](c2ccc(OCCCC(F)(F)F)cc2)(C(F)(F)F)NC1=O` [Compound I-49] it was 0.14 µM; in that of `CC(=O)NCC1=C(c2ccc(C(C)=O)cn2)C[C@](c2ccc(OCCCC(F)(F)F)cc2)(C(F)(F)F)NC1=O` [Compound I-51], 0.13 µM; in that of `CC(C)(C#N)C(=O)NCC1=C(c2ccc(C(C)(C)O)cn2)C[C@](c2ccc(OCCCC(F)(F)F)cc2)(C(F)(F)F)NC1=O` [Compound I-52], 0.0031 µM.
In the case of `CC(C)c1ccc(C2=C(CNC(=O)C3COC3)C(=O)N[C@@](c3ccc(OCCCC(F)(F)F)cc3)(C(F)(F)F)C2)nc1` [Compound I-53] it was 0.011 µM; in that of `CC(C)c1ccc(C2=C(CNC(=O)CC(=O)OC(C)(C)C)C(=O)N[C@@](c3ccc(OCCCC(F)(F)F)cc3)(C(F)(F)F)C2)nc1` [Compound I-54], 0.082 µM; in that of `CC(C)c1ccc(C2=C(CNC(=O)CC(=O)O)C(=O)N[C@@](c3ccc(OCCCC(F)(F)F)cc3)(C(F)(F)F)C2)nc1` [Compound I-55], 0.16 µM.
In the case of `CC(=O)NCC1=C(c2ccc(OC(F)F)cn2)C[C@](c2ccc(OCCCC(F)(F)F)cc2)(C(F)(F)F)NC1=O` [Compound I-56], the IC50 is 0.017 µM.
For `CS(=O)(=O)CC(=O)NCC1=C(c2ccc(OC(F)F)cn2)C[C@](c2ccc(OCCCC(F)(F)F)cc2)(C(F)(F)F)NC1=O` [Compound I-57], the 50% inhibitory concentration (IC50) stood at 0.00062 µM.
To `CC(=O)NCC1=C(c2ccc(C(F)F)cn2)C[C@](c2ccc(OCCCC(F)(F)F)cc2)(C(F)(F)F)NC1=O` [Compound I-58] belongs 0.034 µM; to `CS(=O)(=O)CC(=O)NCC1=C(c2ccc(C(F)F)cn2)C[C@](c2ccc(OCCCC(F)(F)F)cc2)(C(F)(F)F)NC1=O` [Compound I-59], 0.0011 µM.
To `CC(C)c1ccc(C2=C(CNC(=O)CO)C(=O)N[C@@](c3ccc(OCCCC(F)(F)F)cc3)(C(F)(F)F)C2)nc1` [Compound I-60] belongs 0.027 µM; to `CC(C)c1ccc(C2=C(CNC(=O)CN(C)C)C(=O)N[C@@](c3ccc(OCCCC(F)(F)F)cc3)(C(F)(F)F)C2)nc1` [Compound I-61], 0.027 µM.
Consider `O=C(CO)NCC1=C(c2ccc(OC(F)F)cn2)C[C@](c2ccc(OCCCC(F)(F)F)cc2)(C(F)(F)F)NC1=O` [Compound I-62], for which the IC50 stood at 0.059 µM.
In the case of `O=C(CO)NCC1=C(c2ccc(C(F)F)cn2)C[C@](c2ccc(OCCCC(F)(F)F)cc2)(C(F)(F)F)NC1=O` [Compound I-63] it was 0.11 µM; in that of `CC(C)(C)OC(=O)N1CC(C(=O)NCC2=C(c3ccc(C(F)F)cn3)C[C@](c3ccc(OCCCC(F)(F)F)cc3)(C(F)(F)F)NC2=O)C1` [Compound I-64], 0.014 µM; in that of `O=C1N[C@@](c2ccc(OCCCC(F)(F)F)cc2)(C(F)(F)F)CC(c2ccc(C(F)F)cn2)=C1CNC(=O)C1CNC1` [Compound I-65], 0.28 µM.
To `CC1(C(=O)NCC2=C(c3ccc(C(F)F)cn3)C[C@](c3ccc(OCCCC(F)(F)F)cc3)(C(F)(F)F)NC2=O)CNC1` [Compound I-66] belongs 0.41 µM; to `O=C1N[C@@](c2ccc(OCCCC(F)(F)F)cc2)(C(F)(F)F)CC(c2ccc(C(F)F)cn2)=C1CNC(=O)C1(F)CNC1` [Compound I-67], 0.04 µM.
As for `CC(=O)NCC1=C(c2ncc(C3CC3)s2)C[C@](c2ccc(OCCCC(F)(F)F)cc2)(C(F)(F)F)NC1=O` [Compound I-68], the IC50 is 0.44 µM.
In the case of `CS(=O)(=O)CC(=O)NCC1=C(c2ncc(C3CC3)s2)C[C@](c2ccc(OCCCC(F)(F)F)cc2)(C(F)(F)F)NC1=O` [Compound I-69] it was 0.043 µM; in that of `CS(=O)(=O)CC(=O)NCC1=C(c2ccc(Br)cn2)C[C@](c2ccc(OCCCC(F)(F)F)cc2)(C(F)(F)F)NC1=O` [Compound I-70], 0.0053 µM.
To `CS(=O)(=O)CC(=O)NCC1=C(c2ccc(Br)cn2)C[C@@](c2ccc(OCCCC(F)(F)F)cc2)(C(F)(F)F)NC1=O` [Compound I-71] belongs 0.94 µM.
To `C=C(C)c1ccc(C2=C(CNC(=O)CS(C)(=O)=O)C(=O)N[C@@](c3ccc(OCCCC(F)(F)F)cc3)(C(F)(F)F)C2)nc1` [Compound I-72] belongs 0.001 µM; to `C=C(C)c1ccc(C2=C(CNC(=O)CS(C)(=O)=O)C(=O)N[C@](c3ccc(OCCCC(F)(F)F)cc3)(C(F)(F)F)C2)nc1` [Compound I-73], 0.077 µM; to `CS(=O)(=O)CC(=O)NCC1=C(c2ccc(C(F)F)cn2)C[C@](c2ccc(C(F)(F)F)cc2)(C(F)(F)F)NC1=O` [Compound I-75], 0.078 µM.
On to `CS(=O)(=O)CC(=O)NCC1=C(c2ccc(OC(F)F)cn2)C[C@](c2ccc(Br)cc2)(C(F)(F)F)NC1=O` [Compound I-78], for which the concentration for half-maximal inhibition (IC50) was found to be 0.025 µM.
To `CC(C)(C(=O)NCC1=C(c2ccc(C(F)F)cn2)C[C@](c2ccc(OCCCC(F)(F)F)cc2)(C(F)(F)F)NC1=O)S(C)(=O)=O` [Compound I-80] belongs 0.99 µM; to `CS(=O)(=O)C1(C(=O)NCC2=C(c3ccc(C(F)F)cn3)C[C@](c3ccc(OCCCC(F)(F)F)cc3)(C(F)(F)F)NC2=O)CC1` [Compound I-81], 0.14 µM; to `CC(C(=O)NCC1=C(c2ccc(C(F)F)cn2)C[C@](c2ccc(OCCCC(F)(F)F)cc2)(C(F)(F)F)NC1=O)S(C)(=O)=O` (some centres unmarked) [Compound I-83], 0.022 µM.
In the case of `CC(C(=O)NCC1=C(c2ccc(C(F)F)cn2)C[C@](c2ccc(OCCCC(F)(F)F)cc2)(C(F)(F)F)NC1=O)S(C)(=O)=O` (some centres unmarked) [Compound I-85] it was 0.024 µM; in that of `CS(=O)(=O)CC(=O)NCC1=C(c2ccc(C(F)F)cn2)C[C@](c2ccc(CCC(F)(F)F)cc2)(C(F)(F)F)NC1=O` [Compound I-86], 0.0019 µM; in that of `CS(=O)(=O)CC(=O)NCC1=C(c2ccc(C(F)F)cn2)C[C@](c2ccc(C3CC3)cc2)(C(F)(F)F)NC1=O` [Compound I-88], 0.021 µM.
To `CS(=O)(=O)CC(=O)NCC1=C(c2ccc(C(F)F)cn2)C[C@](c2ccc(OC(F)(F)F)cc2)(C(F)(F)F)NC1=O` [Compound I-90] belongs 0.027 µM; to `CS(=O)(=O)CC(=O)NCC1=C(c2ccc(C(F)F)cn2)C[C@](c2ccc(OCC(F)(F)F)cc2)(C(F)(F)F)NC1=O` [Compound I-91], 0.0068 µM; to `CS(=O)(=O)CC(=O)NCC1=C(c2ccc(C(F)F)cn2)C[C@](c2ccc(Br)cc2)(C(F)(F)F)NC1=O` [Compound I-94], 0.059 µM.
As for `CS(=O)(=O)CC(=O)NCC1=C(c2ccc(OC(F)F)cn2)C[C@](c2ccc(C3CC3)cc2)(C(F)(F)F)NC1=O` [Compound I-95], the IC50 was 0.017 µM.
Turning to `CS(=O)(=O)CC(=O)NCC1=C(c2ccc(C(F)F)cn2)C[C@](c2ccc(CN3CCOCC3)cc2)(C(F)(F)F)NC1=O` [Compound I-97], the IC50 came to 0.039 µM.
To `Cn1cc(-c2ccc([C@]3(C(F)(F)F)CC(c4ccc(OC(F)F)cn4)=C(CNC(=O)CS(C)(=O)=O)C(=O)N3)cc2)cn1` [Compound I-98] belongs 0.07 µM.
As for `CS(=O)(=O)CC(=O)NCC1=C(c2ccc(OC(F)F)cn2)C[C@](c2ccc(-c3ccccc3)cc2)(C(F)(F)F)NC1=O` [Compound I-99], the concentration for half-maximal inhibition (IC50) is 0.026 µM.
In the case of `Cn1ccc(-c2ccc([C@]3(C(F)(F)F)CC(c4ccc(OC(F)F)cn4)=C(CNC(=O)CS(C)(=O)=O)C(=O)N3)cc2)cc1=O` [Compound I-100] it was 0.37 µM.
To `CS(=O)(=O)CC(=O)NCC1=C(c2ccc(OC(F)F)cn2)C[C@](c2ccc(C3=CCOCC3)cc2)(C(F)(F)F)NC1=O` [Compound I-101] belongs 0.042 µM; to `COC/C=C/c1ccc([C@]2(C(F)(F)F)CC(c3ccc(OC(F)F)cn3)=C(CNC(=O)CS(C)(=O)=O)C(=O)N2)cc1` [Compound I-102], 0.021 µM.
As to `CS(=O)(=O)CC(=O)NCC1=C(c2ccc(OC(F)F)cn2)C[C@](c2ccc(OCCCC(F)(F)F)cn2)(C(F)(F)F)NC1=O` [Compound I-103], the half-maximal inhibitory concentration (IC50) came out at 0.0066 µM.
To `CS(=O)(=O)CC(=O)NCC1=C(c2ccc(OC(F)F)cn2)C[C@](c2ccc(OCC(F)F)cc2)(C(F)(F)F)NC1=O` [Compound I-105] belongs 0.0092 µM; to `CS(=O)(=O)CC(=O)NCC1=C(c2ccc(OC(F)F)cn2)C[C@](c2ccc(C(F)(F)F)cc2)(C(F)(F)F)NC1=O` [Compound I-108], 0.046 µM; to `CS(=O)(=O)CC(=O)NCC1=C(c2ccc(C(F)F)cn2)CC(c2ccc(Br)cc2F)(C(F)(F)F)NC1=O` (centres unmarked) [Compound I-111], 0.033 µM.

Source of the values: patent publication US10335401B2, “Non-aromatic heterocyclic derivative having MGAT2 inhibitory activity” (Shionogi & Co., Ltd., priority 2015, dated 2019).
